# Measurements as given in EP4752152A1, “STEROID COMPOUND, AND PREPARATION METHOD THEREFOR AND USE THEREOF” (Cholesgen (Shanghai) Co.Ltd., priority 2023, dated 2025).
# Tests used:
# SREBP pathway = assay: SREBP luciferase reporter gene system (SRE-luciferase assay); type: cell-based, human; details: Homo sapiens, Huh-7, 16 h, Huh-7/SRE-luc cells, sterol-deficient medium, 0.01-10 µM
# How it was run: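 Huh-7 cells stably carrying LDLR promoter-luciferase plus GFP were treated 16 h in sterol-deficient medium (5% lipoprotein-deficient serum, 2 µM lovastatin, 10 µM mevalonic acid) at 0.01–10 µM. Luciferase/GFP ratio measured as pathway activity; inhibition versus DMSO fitted to a four-parameter model for IC50.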
# [1] = Metabolic stability experiment of mouse liver microsomes; type: in vitro ADME
# Procedure: PB solution (100 mM), MgCl2 solution (300 mM), NADPH solution (2.04 mM), and mouse liver microsome (SHQY catalog number: M1000, batch number: 2110330) solution (1.00 mg/mL) were prepared respectively. […] Then, 100 µL of mouse liver microsome solution was added to a 96-well sample plate. For the 0 min sample, acetonitrile solution containing the internal standard was first added; then, 2 µL of 100 µM working solution was added; followed by the addition of 98 µL of pre-warmed 2.04 mM NADPH at 37°C. For the 5 min, 15 min, 30 min, 45 min, and 60 min samples, 2 µL of 100 µM working solution was first added; followed by the addition of 98 µL of pre-warmed 2.04 mM NADPH at 37°C to initiate the reaction; upon reaching the respective time points, a solution of acetonitrile containing the internal standard was added to terminate the reaction. For the NCF60 sample, 2 µL of 100 µM working solution was first added; followed by the addition of 98 µL of pre-warmed PB at 37°C to initiate the reaction; upon reaching the respective time points, a solution of acetonitrile containing the internal standard was added to terminate the reaction. During the experiment, all samples were incubated in a 37°C water bath. All samples were shaken on an oscillator at 800 rpm for 10 min, then centrifuged at 3200 g for 20 min. The supernatant was aspirated, diluted with deionized water at the corresponding ratio, and analyzed by LC-MS/MS. The remaining percentage of the compound at each time point was obtained by dividing the peak area ratio of the compound at 5, 15, 30, 45, and 60 min by the peak area ratio at 0 min. The half-life (T1/2) of the compound was then calculated using Excel. Table 2: Mouse liver microsome stability results of compounds from some examples
# [2] = Solubility in fasted-state simulated intestinal fluid (FaSSIF); type: physicochemical; details: FaSSIF, pH 6.5, fassif, kinetic from dmso stock, FaSSIF pH 6.5, 300 µM sample solution, room temperature
# Procedure: Compound powder was dissolved in DMSO to prepare a 10.0 mM stock solution for later use. 0.021 g NaOH, 0.198 g NaH2PO4, and 0.309 g NaCl were weighed and added to 50.0 mL of ultrapure water. After thorough mixing, the pH was adjusted to 6.5 using HCl or NaOH. Then, 0.112 g of FaSSIF powder was added. After complete dissolution, the solution was allowed to stand at room temperature for 2 hours for later use. A certain volume of the compound stock solution was added to a certain volume of FaSSIF to prepare a 300 µM sample solution, which was mixed at room temperature under 1000 rpm for 1 hour. After 1 hour, the sample was centrifuged, and a certain volume of supernatant was taken. The termination solution was added to precipitate the sample, which was then thoroughly mixed and centrifuged for 20 minutes. The supernatant was then taken again, diluted with dilution solution, and then analyzed by liquid chromatography-tandem mass spectrometry (LC-MS/MS). The concentration of the test compound in the samples was quantitatively determined using LC-MS/MS. Table 3: FaSSIF solubility results of compounds from some examples
# [3] = tested on: Fatty Acid Synthase (FASN) gene; assay: Inhibition of FASN gene expression (qPCR) in Huh-7 cells; type: cell-based, human; details: Homo sapiens, Huh-7, 16 h, Huh-7 cells, starvation medium, 16 hours, qPCR; class symbols; read-out: FASN IC50
# How it was run: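 Huh-7 cells switched to starvation DMEM (5% LPDS, 2 µM lovastatin, 10 µM mevalonate) and treated 16 h with compound, top 3000 nM, 3-fold dilutions, 5 concentrations. FASN mRNA by RT-qPCR; inhibition relative to DMSO, IC50 from four-parameter fit.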
SMILES,IC50 (SREBP pathway) [µM],half-life at 1 µM [1] [h],solubility at 1 h [2] [µM],IC50 [3] [µM]
"C[C@H](CCCC(O)c1cccc(F)c1)[C@H]1CC[C@H]2[C@H]3[C@H](CC[C@]12C)[C@@]1(C)CC[C@H](O)[C@H](O)[C@@H]1CC3(F)F (stereo partly drawn) [Compound 44, (1R,3aS,3bS,5aR,6R,7S,9aR,9bS,11aR)-4,4-difluoro-1-[(2R)-6-(3-fluorophenyl)-6-hydroxyhexan-2-yl]-9a,11a-dimethylhexadecahydro-1H-cyclopenta[1,2-a]phenanthrene-6,7-diol]",0.152,> 3.1,225,–
"C[C@H](CCCC(O)c1c(F)cccc1F)[C@H]1CC[C@H]2C3=C(F)C[C@H]4[C@@H](O)[C@@H](O)CC[C@]4(C)[C@H]3CC[C@]12C (stereo partly drawn) [Compound 21, (1R,3aR,5aR,6R,7S,9aR,9bR,11aR)-1-[(2R)-6-(2,6-difluorophenyl)-6-hydroxyhexan-2-yl]-4-fluoro-9a,11a-dimethyl-2,3,3a,5,5a,6,7,8,9,9a,9b,10,11,11a-tetradecahydro-1H-cyclopenta[1,2-a]phenanthrene-6,7-diol]",0.23,2.69,246,–
"COc1cccc(C(O)CCC[C@@H](C)[C@H]2CC[C@H]3[C@H]4[C@H](CC[C@]23C)[C@@]2(C)CC[C@H](O)[C@H](O)[C@@H]2CC4(F)F)c1 (stereo partly drawn) [Compound 39, (1R,3aS,3bS,5aR,6R,7S,9aR,9bS,11aR)-4,4-difluoro-1-[(2R)-6-hydroxy-6-(3-methoxyphenyl)hexan-2-yl]-9a,11a-dimethylhexadecahydro-1H-cyclopenta[1,2-a]phenanthrene-6,7-diol]",0.19,1.95,177,–
"C[C@H](CCCC(O)c1cccc(OC(F)(F)F)c1)[C@H]1CC[C@H]2[C@H]3[C@H](CC[C@]12C)[C@@]1(C)CC[C@H](O)[C@H](O)[C@@H]1CC3(F)F (stereo partly drawn) [Compound 84, (1R,3aS,3bS,5aR,6R,7S,9aR,9bS,11aR)-4,4-difluoro-1-[(2R)-6-hydroxy-6-{3-[(trifluoromethyl)oxy]phenyl}hexan-2-yl]-9a,11a-dimethylhexadecahydro-1H-cyclopenta[1,2-a]phenanthrene-6,7-diol]",0.204,> 3.08,–,0.2 to 0.5
"C[C@H](CCCC(O)c1ccccc1F)[C@H]1CC[C@H]2[C@H]3[C@H](CC[C@]12C)[C@@]1(C)CC[C@H](O)C(=O)[C@@H]1CC3(F)F (stereo partly drawn) [Compound 11, (1R,3aS,3bS,5aR,7S,9aR,9bS,11aR)-4,4-difluoro-1-[(2R)-6-(2-fluorophenyl)-6-hydroxyhexan-2-yl]-7-hydroxy-9a,11a-dimethylhexadecahydro-1H-cyclopenta[1,2-a]phenanthren-6-one]",0.19,0.819,–,0.2 to 0.5
"COc1cccc(C(O)CCC[C@@H](C)[C@H]2CC[C@H]3C4=C(F)C[C@H]5[C@@H](O)[C@@H](O)CC[C@]5(C)[C@H]4CC[C@]23C)c1F (stereo partly drawn) [Compound 64, (1R,3aR,5aR,6R,7S,9aR,9bR,11aR)-4-fluoro-1-[(2R)-6-(2-fluoro-3-methoxyphenyl)-6-hydroxyhexan-2-yl]-9a,11a-dimethyl-2,3,3a,5,5a,6,7,8,9,9a,9b,10,11,11a-tetradecahydro-1H-cyclopenta[1,2-a]phenanthrene-6,7-diol]",0.318,1.16,–,< 0.2
"COc1ccccc1C(O)CCC[C@@H](C)[C@H]1CC[C@H]2[C@H]3[C@H](CC[C@]12C)[C@@]1(C)CC[C@H](O)CC1CC3(F)F (stereo partly drawn) [Compound 72, (1R,3aS,3bR,7S,9aS,9bS,11aR)-4,4-difluoro-1-[(2R)-6-hydroxy-6-(2-methoxyphenyl)hexan-2-yl]-9a,11a-dimethylhexadecahydro-1H-cyclopenta[1,2-a]phenanthren-7-ol]",0.14,1.38,–,< 0.2
"C[C@H](CCCC(O)c1c(F)cccc1F)[C@H]1CC[C@H]2[C@H]3[C@H](CC[C@]12C)[C@@]1(C)CC[C@H](O)CC1CC3(F)F (stereo in doubt) [Compound 87, (1R,3aS,3bR,7S,9aS,9bS,11aR)-1-[(2R)-6-(2,6-difluorophenyl)-6-hydroxyhexan-2-yl]-4,4-difluoro-9a,11a-dimethylhexadecahydro-1H-cyclopenta[1,2-a]phenanthren-7-ol]",0.055,2.26,–,< 0.2
"C[C@H](CCCC(O)c1ccccc1OC(F)(F)F)[C@H]1CC[C@H]2[C@H]3[C@H](CC[C@]12C)[C@@]1(C)CC[C@H](O)C(=O)[C@@H]1CC3(F)F (stereo partly drawn) [Compound 97, (1R,3aS,3bS,5aR,7S,9aR,9bS,11aR)-4,4-difluoro-7-hydroxy-1-[(2R)-6-hydroxy-6-{2-[(trifluoromethyl)oxy]phenyl}hexan-2-yl]-9a,11a-dimethylhexadecahydro-1H-cyclopenta[1,2-a]phenanthren-6-one]",0.0741,1.78,–,< 0.2
"COc1cccc([C@H](O)CCC[C@@H](C)[C@H]2CC[C@H]3[C@H]4[C@H](CC[C@]23C)[C@@]2(C)CC[C@H](O)[C@H](O)[C@@H]2CC4(F)F)c1OC [Compound 71, (1R,3aS,3bS,5aR,6R,7S,9aR,9bS,11aR)-1-[(2R,6R)-6-(2,3-dimethoxyphenyl)-6-hydroxyhexan-2-yl]-4,4-difluoro-9a,11a-dimethylhexadecahydro-1H-cyclopenta[1,2-a]phenanthrene-6,7-diol]",0.083,1.05,–,< 0.2
"COc1c(F)cccc1C(O)CCC[C@@H](C)[C@H]1CC[C@H]2[C@@H]3CC[C@H]4[C@@H](O)[C@@H](O)CC[C@]4(C)[C@H]3CC[C@]12C (stereo partly drawn) [Compound 7, 24-[(3-Fluoro-2-methoxyphenyl)(hydroxy)methyl]-5α-cholane-3β,4β-diol]",0.07,0.624,–,0.2 to 0.5
"COc1nccc(F)c1C(O)CCC[C@@H](C)[C@H]1CC[C@H]2[C@H]3[C@H](CC[C@]12C)[C@@]1(C)CC[C@H](O)[C@H](O)[C@@H]1CC3(F)F (stereo partly drawn) [Compound 126, (1R,3aS,3bS,5aR,6R,7S,9aR,9bS,11aR)-4,4-difluoro-1-[(2R)-6-(4-fluoro-2-methoxypyridin-3-yl)-6-hydroxyhexan-2-yl]-9a,11a-dimethylhexadecahydro-1H-cyclopenta[1,2-a]phenanthrene-6,7-diol]",0.153,1.79,–,–
"C[C@H](CCCC(O)c1cccc2c1OC(F)(F)O2)[C@H]1CC[C@H]2[C@H]3[C@H](CC[C@]12C)[C@@]1(C)CC[C@H](O)[C@H](O)[C@@H]1CC3(F)F (stereo partly drawn) [Compound 77, (1R,3aS,3bS,5aR,6R,7S,9aR,9bS,11aR)-1-[(2R)-6-(2,2-difluorobenzo[d][1,3]dioxol-4-yl)-6-hydroxyhexan-2-yl]-4,4-difluoro-9a,11a-dimethylhexadecahydro-1H-cyclopenta[1,2-a]phenanthrene-6,7-diol]",0.17,> 3.08,–,< 0.2
"COc1cccc([C@@H](O)CCC[C@@H](C)[C@H]2CC[C@H]3[C@H]4[C@H](CC[C@]23C)[C@@]2(C)CC[C@H](O)[C@H](O)[C@@H]2CC4(F)F)c1OC [Compound 70, (1R,3aS,3bS,5aR,6R,7S,9aR,9bS,11aR)-1-[(2R,6S)-6-(2,3-dimethoxyphenyl)-6-hydroxyhexan-2-yl]-4,4-difluoro-9a,11a-dimethylhexadecahydro-1H-cyclopenta[1,2-a]phenanthrene-6,7-diol]",0.211,0.581,–,< 0.2
